In ChEMBL document CHEMBL1138003, “Small molecule inhibitors of the CCR2b receptor. Part 1: Discovery and optimization of homopiperazine derivatives” (Bioorg Med Chem Lett, 2004) one finds inhibition, IC50 and EC50 data, which are given here for 46 molecules.

For experiment [1], the target named is T1, C-C chemokine receptor type 2 (Homo sapiens, UniProt P41597). The experiment in a line: Percent inhibition of […] (Monocyte Chemoattractant Protein-1) binding to THP-1 cells at 100 uM. In kind it is cell-based.
Target sequence in this assay (P41597 whole entry, looked up): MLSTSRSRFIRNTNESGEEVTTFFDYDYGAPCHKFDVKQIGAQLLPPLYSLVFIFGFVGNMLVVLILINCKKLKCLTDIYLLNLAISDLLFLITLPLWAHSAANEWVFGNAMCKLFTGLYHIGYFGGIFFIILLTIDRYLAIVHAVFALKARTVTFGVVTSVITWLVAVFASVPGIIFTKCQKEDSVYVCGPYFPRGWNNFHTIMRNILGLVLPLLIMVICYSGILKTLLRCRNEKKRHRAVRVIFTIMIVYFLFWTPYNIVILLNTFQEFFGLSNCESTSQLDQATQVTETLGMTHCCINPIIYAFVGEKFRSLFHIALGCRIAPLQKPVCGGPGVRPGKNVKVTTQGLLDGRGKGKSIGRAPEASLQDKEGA
Experiment [2] addresses T1, C-C chemokine receptor type 2. The experiment in a line: Percent inhibition of [125I]MCP-1 (Monocyte Chemoattractant Protein-1) binding to THP-1 cells at 100 uM. In kind it is cell-based.
Target sequence in this assay (P41597 whole entry, looked up): as above
For experiment [3] the target is unchanged. The experiment in a line: Concentration required to inhibit [125I]MCP-1 (Monocyte Chemoattractant Protein-1) binding to THP-1 cell. In kind it is cell-based.
Target sequence in this assay (P41597 whole entry): as the sequence (P41597 whole entry, looked up) above
Experiment [4] shares this target. Nature of the experiment: Concentration required to inhibit [125I]MCP-1 (Monocyte Chemoattractant Protein-1) binding to THP-1 cell; not determined. In kind it is cell-based.
Target sequence in this assay (P41597 whole entry): as the sequence (P41597 whole entry, looked up) above
The nature of experiment [5]: Effective concentration in a chemotaxis assay. In kind it is functional.

Regarding `c1ccc(C(CCN2CCCN(Cc3ccccn3)CC2)c2ccccc2)cc1`, the inhibition in experiment [1] amounted to 35%.

Consider `COc1ccccc1C(O)(CCN1CCCN(Cc2ccc(S(C)(=O)=O)cc2)CC1)c1ccccc1OC`, for which the inhibition in experiment [2] was 14%.

Take `N#Cc1ccc(CN2CCCN(CCC(c3ccccc3)c3ccccc3)CC2)cc1`: the inhibition in experiment [1] came to 74%. Besides, the IC50 in experiment [3] was determined as 43 µM.

In experiment [3], `Cc1cccc(C(O)(CCN2CCCN(Cc3ccc(S(C)(=O)=O)cc3)CC2)c2ccccc2)c1` (stereo not given) registered a half-maximal inhibitory concentration (IC50) of 16 µM. Also, the inhibition in experiment [2] was 92%.

In the case of `COc1ccc(CN2CCCN(CCC(c3ccccc3)c3ccccc3)CC2)cc1`, in experiment [1], the inhibition amounted to 7%.

Turning to `c1ccc(CN2CCCN(CCC(c3ccccc3)c3ccccc3)CC2)cc1`, the inhibition in experiment [1] stood at 24%.

Take `O=C(CN1CCCN(CCC(O)(c2ccccc2)c2cccc(O)c2)CC1)NNC(=O)c1cccs1` (stereo not given): the IC50 in experiment [3] worked out at 28 µM.

`COc1cccc(C(O)(CCN2CCCN(Cc3ccc(S(C)(=O)=O)cc3)CC2)c2cccc(OC)c2)c1`: the inhibition in experiment [2] was 38%.

With `c1ccc(C(CCN2CCCN(Cc3ccncc3)CC2)c2ccccc2)cc1`, in experiment [1], the inhibition was found to be 87%. The molecule further showed an IC50 in experiment [3] of 11 µM.

In the case of `CCCN1CCCN(CCC(c2ccccc2)c2ccccc2)CC1`, in experiment [1], the inhibition amounted to 15%.

On to `CS(=O)(=O)c1ccc(CN2CCCN(CCC(O)(c3cccc(O)c3)c3cccc(F)c3)CC2)cc1` (stereo not given), for which the IC50 in experiment [3] turned out to be 2.4 µM. Also, in experiment [2], the inhibition was found to be 104%.

`CS(=O)(=O)c1ccc(CN2CCCN(CCC(O)(c3cccc(F)c3)c3cccc(F)c3)CC2)cc1`: in experiment [3], the IC50 turned out to be 34 µM. Further, the inhibition in experiment [2] was determined as 75%.

As for `CS(=O)(=O)c1ccc(CN2CCCN(CCC(O)(c3ccc(-c4ccccc4)cc3)c3ccc(-c4ccccc4)cc3)CC2)cc1`, the inhibition in experiment [2] was found to be 0%.

In turn, `Cc1csc(C(=O)NNC(=O)CN2CCCN(CCC(O)(c3ccccc3)c3cccc(O)c3)CC2)c1` (stereo not given) gave an IC50 in experiment [3] of 6.4 µM.

On to `CS(=O)(=O)c1ccc(CN2CCCN(Cc3ccc(Cl)cc3)CC2)cc1`, for which, in experiment [3], the IC50 is more than 100 µM.

As to `CS(=O)(=O)c1ccc(CN2CCCN(CCC(O)(c3ccc(O)cc3)c3ccc(O)cc3)CC2)cc1`, the IC50 in experiment [3] was 21 µM. Further, the inhibition in experiment [2] came to 83%.

For `CS(=O)(=O)c1ccc(CN2CCCN(CCC(O)(c3ccc(C(F)(F)F)cc3)c3ccc(C(F)(F)F)cc3)CC2)cc1`, in experiment [2], the inhibition is 38%.

In the case of `Clc1ccc(CN2CCCN(CCC(c3ccccc3)c3ccccc3)CC2)cc1`, the inhibition in experiment [1] was determined as 8%.

Take `CS(=O)(=O)c1ccc(CN2CCCN(CCC(O)(c3cccc(Cl)c3)c3cccc(Cl)c3)CC2)cc1`: the inhibition in experiment [2] is 28%.

In the case of `CNc1cccc(C(O)(CCN2CCCN(Cc3ccc(S(C)(=O)=O)cc3)CC2)c2ccccc2)c1` (stereo not given), the IC50 in experiment [3] stood at 5 µM. Also, the inhibition in experiment [2] was 87%.

In the case of `Cc1ccccc1C(O)(CCN1CCCN(Cc2ccc(S(C)(=O)=O)cc2)CC1)c1ccccc1C`, the inhibition in experiment [2] came out at 0%.

In turn, `CS(=O)(=O)c1ccc(CN2CCCN(CCC(O)(c3ccccc3)c3cccc(F)c3)CC2)cc1` (stereo not given) came in with an IC50 in experiment [3] of 12 µM. Also, the inhibition in experiment [2] was 95%.

On to `O=[N+]([O-])c1cccc(CN2CCCN(CCC(c3ccccc3)c3ccccc3)CC2)c1`, for which, in experiment [1], the inhibition came to 35%.

For the molecule `CS(=O)(=O)c1ccc(CN2CCCN(CCC(c3ccccc3)c3ccccc3)CC2)cc1`, in experiment [1], the inhibition worked out at 91%. The same molecule registered an IC50 in experiment [3] of 13 µM.

In the case of `CS(=O)(=O)c1ccc(CN2CCCN(CCC(O)(c3cccc(O)c3)c3cccc(O)c3)CC2)cc1`, the IC50 in experiment [4] came to 1.5 µM. Besides, in experiment [2], the inhibition is 108%.

Turning to `CS(=O)(=O)c1ccc(CN2CCCN(CCC(O)(c3ccccc3)c3cccc(N)c3)CC2)cc1` (stereo not given), the IC50 in experiment [3] turned out to be 4.2 µM. Also, the inhibition in experiment [2] was 102%.

Take `Cc1csc(C(=O)NNC(=O)CN2CCCN(Cc3ccc(Cl)cc3)CC2)c1`: the IC50 in experiment [3] was 7.4 µM. Also, in experiment [5], the EC50 came to 9.5 µM.

Turning to `O=[N+]([O-])c1ccc(CN2CCCN(CCC(c3ccccc3)c3ccccc3)CC2)cc1`, the inhibition in experiment [1] stood at 87%. Moreover, in experiment [3], the IC50 was 19 µM.

For `COc1cccc(C(O)(CCN2CCCN(Cc3ccc(S(C)(=O)=O)cc3)CC2)c2ccccc2)c1` (stereo not given), the IC50 in experiment [3] came to 7.9 µM. In addition, the inhibition in experiment [2] turned out to be 97%.

As for `FC(F)(F)c1ccc(CN2CCCN(CCC(c3ccccc3)c3ccccc3)CC2)cc1`, the inhibition in experiment [1] worked out at 25%.

On to `COC(=O)c1ccc(CN2CCCN(CCC(c3ccccc3)c3ccccc3)CC2)cc1`, for which the inhibition in experiment [1] was 1%.

Take `CS(=O)(=O)c1ccc(CN2CCCN(CCC(O)(c3ccc(Cl)cc3)c3cccc(O)c3)CC2)cc1` (stereo not given): the IC50 in experiment [3] came to 1.5 µM. For the same molecule, the inhibition in experiment [2] came to 104%.

Consider `O=[N+]([O-])c1ccccc1CN1CCCN(CCC(c2ccccc2)c2ccccc2)CC1`, for which the inhibition in experiment [1] came to 7%.

In turn, `CS(=O)(=O)c1ccc(CN2CCCN(CCC(O)(c3ccccc3)c3cccc(O)c3)CC2)cc1` (stereo not given) returned an IC50 in experiment [3] of 0.71 µM. Also, the inhibition in experiment [2] was 105%.

`CS(=O)(=O)c1ccc(CN2CCCN(CCC(O)(c3ccc(F)cc3)c3ccc(F)cc3)CC2)cc1` registered an IC50 in experiment [3] of 7 µM. Further, the inhibition in experiment [2] was determined as 100%.

`CS(=O)(=O)c1ccc(CN2CCCN(CCC(O)(c3ccccc3)c3ccccc3)CC2)cc1` had an IC50 in experiment [3] of 4.1 µM. In experiment [2], the inhibition turned out to be 104%.

The molecule `CS(=O)(=O)c1ccc(CN2CCCN(CCC(O)(c3ccc(F)cc3)c3cccc(O)c3)CC2)cc1` (stereo not given) yielded an IC50 in experiment [3] of 1.5 µM. Further, the inhibition in experiment [2] came out at 105%.

With `CS(=O)(=O)c1ccc(CN2CCCN(CCC(O)(c3cccc(O)c3)c3cc(F)cc(F)c3)CC2)cc1` (stereo not given), the IC50 in experiment [3] was 9.3 µM. The inhibition in experiment [2] came out at 107%.

In the case of `O=C(CN1CCCN(Cc2ccc(Cl)cc2)CC1)NNC(=O)c1cccs1`, the IC50 in experiment [3] was 30 µM.

Regarding `CC(C)(C)c1ccc(C(O)(CCN2CCCN(Cc3ccc(S(C)(=O)=O)cc3)CC2)c2ccc(C(C)(C)C)cc2)cc1`, the inhibition in experiment [2] turned out to be 39%.

As for `CS(=O)(=O)c1ccc(CN2CCCN(CCC(O)(c3ccccc3)c3cccc(CO)c3)CC2)cc1` (stereo not given), in experiment [3], the IC50 turned out to be 4 µM. The inhibition in experiment [2] came to 100%.

`CS(=O)(=O)c1ccc(CN2CCCN(CCC(O)(c3ccc(Cl)cc3)c3ccc(Cl)cc3)CC2)cc1`: the IC50 in experiment [3] amounted to 11 µM. In experiment [2], the inhibition came to 94%.

For the molecule `c1ccc(C(CCN2CCCN(Cc3cccnc3)CC2)c2ccccc2)cc1`, in experiment [1], the inhibition is 69%.

As for `CS(=O)(=O)c1ccc(CN2CCCN(CCC(O)(c3cccc(O)c3)c3cccc(Cl)c3)CC2)cc1` (stereo not given), the IC50 in experiment [3] was found to be 4.5 µM. For the same molecule, in experiment [2], the inhibition was determined as 99%.

`NS(=O)(=O)c1ccc(CN2CCCN(CCC(O)(c3ccccc3)c3cccc(O)c3)CC2)cc1` (stereo not given) had an IC50 in experiment [3] of 1.5 µM.

The molecule `CN(C)c1ccc(C(O)(CCN2CCCN(Cc3ccc(S(C)(=O)=O)cc3)CC2)c2ccc(N(C)C)cc2)cc1` showed an IC50 in experiment [3] of 45 µM. Also, the inhibition in experiment [2] stood at 68%.

A word on the inhibition: it is the change of the read-out against control, counted positive when it falls. A word on the IC50: it is the point on the concentration scale where inhibition reaches its midpoint. The low end stands for inhibition by little substance, the high end for a need for much substance. The EC50 is the midpoint of the concentration-response curve. Low readings indicate greater potency, high ones weaker potency.
